According to US7060657B2, “Combinations of cyclohexanedione oxime herbicides and safeners” (Bayer CropScience GmbH, priority 2002, dated 2006):

Key:
Format in all cases: in vivo
Avena fatua = assay: Post-emergence field trial on weeds (Example 5); settings: 3-5 leaf growth stage, 21 days after treatment
Experimental: (§1) The numbers in the columns refer to the percentage damage to the crop or weed. Winter wheat was grown outdoors on plots under natural outdoor conditions, and seeds of typical harmful plants were laid out. Treatment with the herbicide (A), the safener (B) and the herbicide-safener combination (A)+(B) was carried out after the harmful plants had emerged and the wheat was in the growth stage between 3 and 5 leaves. The effect of the composition was assessed 28 days after treatment by scoring visually in comparison with untreated controls. Field trials were carried out according to the above Example 1 and applying a mixture of cycloxydim and fenoxaprop-P-ethyl+mefenpyr-diethyl to winter wheat and the weed Avena fatua at the 3–5 leaf growth stage. Assessment was 21 days after treatment.

[1] = system: Triticum aestivum (winter wheat); assay: Post-emergence field trial on winter wheat (Example 5); settings: 3-5 leaf growth stage, 21 days after treatment
Experimental: as §1

[2] = system: Hordeum vulgare (summer barley); assay: Post-emergence field trials, selectivity in barley (Examples 2-4)
Experimental: (§2) The numbers in the columns refer to the percentage damage to the crop or weed.
(§3) Winter wheat was grown outdoors on plots under natural outdoor conditions, and seeds of typical harmful plants were laid out. Treatment with the herbicide (A), the safener (B) and the herbicide-safener combination (A)+(B) was carried out after the harmful plants had emerged and the wheat was in the growth stage between 3 and 5 leaves. The effect of the composition was assessed 28 days after treatment by scoring visually in comparison with untreated controls.
(§4) Field trials were carried out according to the above Example 1 but using the crops barley and durum wheat and applying a mixture of clethodim and mefenpyr-diethyl.
(§5) Field trials were carried out according to the above Example 2 and applying a mixture of clethodim and fenoxaprop-P-ethyl plus mefenpyr-diethyl.
(§6) Field trials were carried out according to the above Example 2 and applying a mixture of tepraloxydim and mefenpyr-diethyl, or tepraloxydim and fenoxaprop-P-ethyl plus mefenpyr-diethyl.

[3] = system: Triticum durum desf. (durum wheat); assay: Post-emergence field trials, selectivity in durum wheat (Examples 2-4)
Experimental: as §2, §3, §4, §5, §6

Alopecurus myosuroides = assay: Post-emergence field trial, effect on weeds (Example 1); settings: 28 days after treatment
Experimental: as §2
(§7) Post-Emergence Effect on Weeds and Selectivity in Winter Wheat (Field Trials)
as §3
(§8) The percentage control of the weed species are shown in comparison with the expected values given in parentheses.

Phalaris minor = assay: as above; settings: 28 days after treatment
Experimental: as §2, §7, §3, §8

[4] = system: Triticum aestivum (winter wheat); assay: Post-emergence field trial, selectivity in winter wheat (Example 1); settings: 28 days after treatment
Experimental: as §2, §7, §3

CCCC(=NOCC)C1=C(O)CC(C2CCCSC2)CC1=O (racemic) [Compound A5, (±)-2-[1-(ethoxyimino)butyl]-3-hydroxy-5-thian-3-ylcyclohex-2-enone]
Phytotox (%) on AVEFA (Avena fatua; 40 g a.i./ha): 65% | Phytotox (%) on TRZAW ([1]; 40 g a.i./ha): 16%

CCC(=NOC/C=C/Cl)C1=C(O)CC(C2CCOCC2)CC1=O (racemic) [(A7), (EZ)-(RS)-2-{1-[(2E)-3-chloroallyloxyimino]propyl}-3-hydroxy-5-perhydropyran-4-ylcyclohex-2-en-1-one]
Phytotox (%) on HORVS ([2]; 8.25 g ai/ha): 78% | Phytotox (%) on TRZDU ([3]; 8.25 g ai/ha): 70%

CCCC(=NOCC)C1=C(O)CC(CC(C)SCC)CC1=O (racemic) [Compound A6, (±)-(EZ)-2-(1-ethoxyiminobutyl)-5-[2-(ethylthio)propyl]-3-hydroxycyclohex-2-enone]
Phytotox (%) on ALOMY (Alopecurus myosuroides; 72 g a.i./ha): 70% | Phytotox (%) on PHAMI (Phalaris minor; 72 g a.i./ha): 55% | Phytotox (%) on TRZAW ([4]; 72 g a.i./ha): 28%

CCSC(C)CC1CC(=O)C(/C(CC)=N/OC/C=C/Cl)=C(O)C1 (racemic) [(A4), (±)-2-[(E)-1-[(E)-3-chloroallyloxyimino]propyl]-5-[2-(ethylthio)propyl]-3-hydroxycyclohex-2-enone]
Phytotox (%) on HORVS ([2]; 7.5 g ai/ha): 51% | Phytotox (%) on HORVS ([2]; 15 g ai/ha): 67% | Phytotox (%) on TRZDU ([3]; 7.5 g ai/ha): 32% | Phytotox (%) on TRZDU ([3]; 15 g ai/ha): 56%

CCOC(=O)C1=NN(c2ccc(Cl)cc2Cl)C(C)(C(=O)OCC)C1 (stereo not drawn) [(B1), ethyl 1-(2,4-dichlorophenyl)-5-(ethoxycarbonyl)-5-methyl-2-pyrazoline-3-carboxylate]
Phytotox (%) on HORVS ([2]; 100 g ai/ha): 0% | Phytotox (%) on AVEFA (Avena fatua; 71 g a.i./ha): 0% | Phytotox (%) on ALOMY (Alopecurus myosuroides; 11 g a.i./ha): 0% | Phytotox (%) on ALOMY (Alopecurus myosuroides; 45 g a.i./ha): 0% | Phytotox (%) on PHAMI (Phalaris minor; 11 g a.i./ha): 0% | Phytotox (%) on PHAMI (Phalaris minor; 45 g a.i./ha): 0% | Phytotox (%) on TRZDU ([3]; 100 g ai/ha): 0% | Phytotox (%) on TRZAW ([4]; 11 g a.i./ha): 0% | Phytotox (%) on TRZAW ([4]; 45 g a.i./ha): 0% | Phytotox (%) on TRZAW ([1]; 71 g a.i./ha): 0%
